Data: patent publication US6342523B1, “3,4,5-trisubstituted aryl nitrone compounds, pharmaceutical compositions containing the same and methods for treating inflammation” (Centaur Pharmaceuticals, Inc., priority 1998, dated 2002)

How the values were obtained:
[1] = target: T1, cyclooxygenase 1 (COX-1) (Ovis aries, UniProt P05979); assay: Inhibition of COX-1 (arachidonic acid incubation, PGE2 formation by malondialdehyde quantitation); conditions: 300 μM; COX-1 derived from ram seminal vesicles
T1 sequence (P05979 25-600): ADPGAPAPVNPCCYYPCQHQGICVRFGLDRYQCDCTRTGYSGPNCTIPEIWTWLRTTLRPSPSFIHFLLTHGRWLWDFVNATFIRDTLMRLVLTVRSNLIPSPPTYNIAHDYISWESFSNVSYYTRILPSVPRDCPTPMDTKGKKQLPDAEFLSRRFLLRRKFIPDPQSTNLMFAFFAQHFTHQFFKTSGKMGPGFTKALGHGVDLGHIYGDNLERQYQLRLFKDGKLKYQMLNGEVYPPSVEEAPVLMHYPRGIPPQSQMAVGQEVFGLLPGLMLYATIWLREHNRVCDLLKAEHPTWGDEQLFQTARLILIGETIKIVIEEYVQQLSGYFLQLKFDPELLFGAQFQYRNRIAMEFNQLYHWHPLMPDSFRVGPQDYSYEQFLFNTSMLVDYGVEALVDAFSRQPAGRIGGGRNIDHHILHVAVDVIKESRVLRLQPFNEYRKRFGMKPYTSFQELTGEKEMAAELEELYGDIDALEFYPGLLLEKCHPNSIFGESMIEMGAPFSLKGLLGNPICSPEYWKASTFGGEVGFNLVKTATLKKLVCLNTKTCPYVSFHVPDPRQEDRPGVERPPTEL
Method: (§1) The inhibition of COX-I was measured by incubating arachidonic acid with COX-1 derived from ram seminal vesicles. The inhibition of COX-2 was measured by incubation of arachidonic acid with COX-2 derived from sheep placenta. […] In each assay, the formation of prostaglandin E2 (PGE2) was measured by spectrophotometric quantitation of malondialdehyde.

[2] = target: T2, cyclooxygenase 2 (COX-2) (Ovis aries, UniProt P79208); assay: Inhibition of COX-2 (arachidonic acid incubation, PGE2 formation by malondialdehyde quantitation); conditions: 300 μM; COX-2 derived from sheep placenta
T2 sequence (P79208 17-603): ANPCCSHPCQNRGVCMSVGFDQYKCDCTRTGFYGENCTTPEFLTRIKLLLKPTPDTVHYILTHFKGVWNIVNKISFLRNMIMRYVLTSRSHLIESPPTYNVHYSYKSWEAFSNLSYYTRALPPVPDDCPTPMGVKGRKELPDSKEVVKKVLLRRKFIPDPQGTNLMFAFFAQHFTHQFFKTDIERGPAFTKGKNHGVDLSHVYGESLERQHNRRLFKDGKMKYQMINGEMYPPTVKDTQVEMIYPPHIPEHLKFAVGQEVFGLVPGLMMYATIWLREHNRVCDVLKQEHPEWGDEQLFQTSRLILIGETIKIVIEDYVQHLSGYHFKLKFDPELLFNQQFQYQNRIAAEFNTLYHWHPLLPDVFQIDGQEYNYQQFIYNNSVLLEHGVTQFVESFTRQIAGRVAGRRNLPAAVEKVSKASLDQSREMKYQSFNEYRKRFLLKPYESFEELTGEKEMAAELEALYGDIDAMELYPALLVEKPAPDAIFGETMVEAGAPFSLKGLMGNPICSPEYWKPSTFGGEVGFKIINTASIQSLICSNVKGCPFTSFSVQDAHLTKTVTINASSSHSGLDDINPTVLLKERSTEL
Method: as §1

[3] = test system: adjuvant-induced footpad edema; assay: Adjuvant assay (adjuvant-induced footpad edema); assay type: in vivo; conditions: Male Lewis rats; 3 mg/kg, po; dosing day 14 to day 21 post-adjuvant
Method: This assay is a model for chronic inflammation. See, for example, […], “Rat Adjuvant Arthritis: A Model of Chronic Inflammation,” Pharmacological Methods in the Control of Inflammation, 363-380 (1989) and references cited therein. In this assay, Male Lewis rats weighing between 180-220 g were lightly anesthetized with an ip injection of 30 mg/kg of sodium pentobarbital (50 mg/mL). Desiccated Mycobacterium butyrium (Difco, 20 mg/mL) suspended in mineral oil was injected (50 μL) at both sides of the base of the tail under the skin. A line was tattooed on both rear paws at 5 mm above the angle of the ankle. The paw volumes, under the line, were measured by volume displacement using a plethysmonmeter (Ugo Basile) at the day of adjuvant injection (day 0) and on day 14. On day 14, animals with paw volumes equal to the mean of paw volumes±SD were randomized into treatment groups. Rats which fell outside±1 SD were not used in the experiment. […] Dosing began on day 14, and continued until final assessment on day 21 post-adjuvant injection. […] This group has a slightly positive volume increase when paw volumes on day 21 are subtracted from day 0 values due to growth of the rat. […] Compounds reducing paw volume by at least about 30% compared to vehicle control group were considered effective in this test.

**Q.** Which results are given for `CC(=O)Oc1c(C(C)(C)C)cc(/C=[N+](\[O-])C(C)(C)C)cc1C(C)(C)C` [Example 1, α-(4-Acetoxy-3,5-di-tert-butylphenyl)-N-tert-butylnitrone]?
**A.** Inhibition of COX-1 [1]: did not significantly affect; Inhibition of COX-2 [2]: did not significantly affect

**Q.** Which melting point does the source give for `CCC(=O)Oc1c(C(C)(C)C)cc(/C=[N+](\[O-])C(C)(C)C)cc1C(C)(C)C` [Example 8, α-(4-propionyloxy-3,5-di-tert-butylphenyl)-N-tert-butylnitrone] here?
**A.** The melting point was 202 to 222 °C.

**Q.** Which melting point does the source give for `CC(=O)Oc1c(C(C)(C)C)cc(/C=[N+](/C)[O-])cc1C(C)(C)C` [Example 9, α-(4-acetoxy-3,5-di-tert-butylphenyl)-N-methylnitrone] here?
**A.** Its melting point is 136 to 143 °C.

**Q.** Which “Paw volume compared to vehicle controls” value [3] does the source give for `COc1ccc2c(c1)c(CC(=O)O)c(C)n2C(=O)c1ccc(Cl)cc1` [indomethacin] here?
**A.** Its value is “significantly reduced paw volume”.
